Results from patent US12344583B2, “Solid psilocin salts” (LOBE SCIENCES LTD., priority 2022, dated 2025).
Several values for one entry are separate records, joined by “and”; a condition that tells them apart may be missing. Identical values can stand only once. Entries after “also recorded” stand apart in the source; their conditions may differ.

What was measured:
[1] = tested on: healthy subjects; assay: Phase one open-label single-dose study of psilocin mucate capsules: MMSE and mood assessment by psychiatrist; settings: single oral capsule 4.05 mg psilocin mucate (equivalent to 2 mg psilocin)
[2] = Stability studies on psilocin mucate capsule (appearance, HPLC assay and impurities, TM-022-0392); assay type: physicochemical
Method: Additional stability studies were performed on the solid psilocin form psilocin mucate (also known as psilocin mucic acid salt or conjugate or psilocin galactaric acid salt or conjugate) capsule.
Appearance was evaluated by viewing of the sample on a watchglass over a black and white background.
Assay conditions for Test/Method TM-022-0392 assessing stability and impurities were as follows: • Mobile phase: MPA: 945 mL water, 5 mL H3PO4, pH to 5.7 with • NaOH; MPB: Acetonitrile • Diluent: 80:20 Water: MeOH • Standard: 0.4 mg/mL Psilocin Mucic RS in Diluent • Sample: 0.4 mg/mL Psilocin Mucic API in Diluent HPLC Conditions are depicted in Table 3.
Calculations were against a bracketing external standard.
Identity of psilocin mucate was verified by ultraviolet (UV) assessment, wherein the UV spectrum of the main peak in the standard matched the UV spectrum of the main peak in the sample and by retention time wherein the retention time ratio was 0.98-1.02.

## CN(C)CCc1c[nH]c2cccc(O)c12.O=C(O)[C@@H](O)[C@H](O)[C@H](O)[C@@H](O)C(=O)O [psilocin mucate]
[1]; one statement per subject
  FEELING STATUS: Less anxious, better mood, increase their appetite; also recorded: Feel little beet happier, better energy; also recorded: Feel calm, less thoughts, happier mood; also recorded: Euphoric, better mood, it helps with life stress; also recorded: Euphories, better mood, sleepy, feel time is; also recorded: Sleepy, better thoughts, less worried in general; also recorded: Did not feel change in mood but feeling cold; also recorded: More relaxed, want to drink sweet tea, better; also recorded: Better mood, feels hyper sexual
[1]; one value per subject, below 25 expected for a hallucinogenic substance
  MMSE: 29 (2×) and 30 (3×) and 28 (3×) and 27 (2×)
[2]; 7 Months
  Total Impurities: <0.05%
[2]; 7 Months, all impurities, area percent
  Impurities TM-22-0392, individual impurities: All <0.05%
[2]; 7 Months, specification 90.0-110.0%
  Assay TM-22-0392 (% Label Claim): 101,7%
[2]; Initial
  Total Impurities: 0.08%
[2]; Initial, impurity at RRT I.12, area percent
  Impurities TM-22-0392, individual impurities: RRT I.12/0.08%
